{"source": "paper PMC10542788", "about": "“Discovery of a cystathionine γ-lyase (CSE) selective inhibitor targeting active-site pyridoxal 5′-phosphate (PLP) via Schiff base formation” (Scientific Reports, 2023)", "key": {"[1]": {"system": "MGL", "assay": "MGL inhibition, HSip-1 fluorescence", "assay_type": "biochemical", "conditions": "30 µM", "protocol": "(§1) The selectivity of 1, 2 and PAG for rCSE over other RSS-producing enzymes, CBS and 3MST, was examined (Fig. 4a). CBS is a PLP-dependent enzyme, like CSE, and produces H2S from cysteine and homocysteine as substrates. 3MST is also an H2S-producing enzyme, but is not PLP-dependent and uses 3-mercaptopyruvate as a substrate. The amount of H2S produced by CBS or 3MST was evaluated in the presence or absence of the inhibitor by measuring the fluorescence intensity of HSip-1. […] We also examined the inhibitory activity towards two other PLP-dependent enzymes, MGL and ALT. MGL metabolizes L-methionine to α-ketobutyric acid, methanethiol and ammonia, and is inhibited by PAG[14]. MGL also produces H2S from homocysteine as a substrate, and this activity of MGL can be measured by fluorescence detection with HSip-1. […] The enzymatic activity of ALT can be assessed by means of a coupled assay using the reduction of pyruvate to L-lactate with lactate dehydrogenase and NADH and measuring the change in absorption of NADH.\n10 µL of 200 µM homocysteine in 30 mM HEPES (pH 7.4) was added to 10 µL of a solution containing 20 µg/mL MGL (Sigma-Aldrich), 100 µM PLP, 1 µM HSip-1, 0.005% tween 20 and various concentrations of the inhibitor (0.5% DMSO as a cosolvent). The mixture was incubated at 25 °C for 100 min and the fluorescence intensity of HSip-1 was measured with a microplate reader."}, "[2]": {"molecular_target": "T1, rCSE (Rattus norvegicus, UniProt P18757)", "T1 sequence (P18757 whole entry)": "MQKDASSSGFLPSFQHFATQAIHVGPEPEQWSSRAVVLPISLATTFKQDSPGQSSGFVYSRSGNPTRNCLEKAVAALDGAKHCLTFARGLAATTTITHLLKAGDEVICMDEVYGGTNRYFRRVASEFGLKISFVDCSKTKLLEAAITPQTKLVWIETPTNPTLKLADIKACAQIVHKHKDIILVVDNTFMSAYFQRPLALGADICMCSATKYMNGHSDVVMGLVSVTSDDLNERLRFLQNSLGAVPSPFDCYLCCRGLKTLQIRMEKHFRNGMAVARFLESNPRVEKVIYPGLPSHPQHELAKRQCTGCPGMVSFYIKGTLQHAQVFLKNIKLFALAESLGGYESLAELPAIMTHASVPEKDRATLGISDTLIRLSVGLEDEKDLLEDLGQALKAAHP", "assay": "SPR measurement of binding between rCSE and 1", "set-up": "made in house; host or cells: E. coli", "protocol": "Moreover, we performed surface plasmon resonance (SPR) assay to investigate the binding kinetics between rCSE and 1. rCSE was immobilized on a sensor chip of an SPR sensor, and various concentrations (6.25, 12.5, 25 and 50 µM) of 1 were flowed over it. The sensor chip was flushed with buffer solution not containing 1 before each concentration change of 1. […] In SPR binding studies between small molecule ligands and proteins, the washing process often markedly decreases the SPR signal.\nThe interaction between rCSE and oxamic hydrazide was analyzed using a Biacore T200 SPR instrument (Cytiva). A CM7 Biacore sensor chip (Cytiva) was used to immobilize rCSE at approximately 35,000 RU after activation with N-hydroxysuccinimide/N-ethyl-N′-(3-dimethylaminopropyl) carbodiimide hydrochloride. Acetate buffer (pH 5.5) was used to dilute rCSE. The activated surface of the sensor was blocked with 1 M ethanolamine. The interaction between rCSE and oxamic hydrazide was measured by injecting increasing concentrations of oxamic hydrazide into the sensor chip. The interaction was measured in 20 mM HEPES (pH 7.4) containing 150 mM NaCl, 0.5 mM TCEP, 100 µM PLP, 0.005% (v/v) Tween-20 and 1% (v/v) DMSO as a cosolvent."}, "[3]": {"molecular_target": "T1, rCSE", "assay": "Live-cell fluorescence imaging of sulfane sulfur with SSP4 in rCSE-expressing COS-7 cells", "assay_type": "cell-based", "conditions": "COS-7 cells expressing rCSE, 1000 µM", "protocol": "Finally, we evaluated the inhibitory activity of 1 towards rCSE in cells. […] So, we prepared COS-7 cells expressing rCSE, treated them with 1 at various concentrations (0, 100, 300 and 1000 µM), and performed fluorescence imaging of sulfane sulfur with SSP4. […] Thus, this inhibitor is available for live-cell experiments.\nCOS-7 cells were maintained in Dulbecco’s modified Eagle’s medium (DMEM) containing 10% fetal calf serum (FBS) and 1% penicillin streptomycin in a humidified atmosphere at 37 °C. The cells were seeded in 6 cm dishes at a density of 5 × 10^5 cells per dish. Transient transfection was performed with Lipofectamine 3000 (Thermo Fisher Scientific). Briefly, 2.5 µg plasmid, 5 µL P3000 reagent, and 7.5 µL Lipofectamine 3000 reagent were mixed in Opti-MEM, and the mixture was added to the cells. After incubation for 24 h, transfected COS-7 cells were re-seeded in eight-well chamber slides (µ-Slide 8 well high, ibidi GmbH) at a density of 4 × 10^4 cells per well. […] Excess probe was removed and the cells were washed with HBSS, then fluorescence images were captured using a Nikon A1R + confocal laser scanning microscope with an ECLIPSE Ti-E inverted microscope and a 20 × objective lens. […] Fluorescence intensity of images was calculated by using NIS-Elements software (Nikon)."}, "[4]": {"system": "ALT", "assay": "ALT inhibition, coupled absorbance assay (NADH, 340 nm)", "assay_type": "biochemical", "conditions": "30 µM", "protocol": "as §1\nAn alanine aminotransferase activity assay kit (BioVision, Inc.) was used to measure the activity of ALT. A mixture of L-alanine, NADH, LDH (lactate dehydrogenase) and ALT was incubated at 37 °C for 15 min, then α-ketoglutarate was added to the mixture and the absorbance at 340 nm was measured with a microplate reader."}}, "note": "Entries after “also recorded” stand apart in the source; their conditions may differ.", "data": [{"smiles": "NNC(=O)C(N)=O", "note": "[Compound 1, oxamic hydrazide]", "values": [{"measurement": "inhibitory activity towards MGL / selectivity for CSE over MGL", "setting": "[1]", "value": "high selectivity for CSE over MGL and ALT"}, {"measurement": "binding to rCSE (SPR)", "setting": "[2]; 6.25, 12.5, 25 and 50 µM", "value": "increased concentration-dependently"}, {"measurement": "dissociation from rCSE during washing (SPR)", "setting": "[2]; washing with buffer not containing 1", "value": "little dissociation occurs; also recorded: no dissociation"}, {"measurement": "SSP4 fluorescence intensity (sulfane sulfur) in cells", "setting": "[3]", "value": "almost completely suppressed"}, {"measurement": "inhibitory activity towards ALT / selectivity for CSE over ALT", "setting": "[4]", "value": "high selectivity for CSE over MGL and ALT"}]}]}
